Data from US10765754B2, “Compositions and methods related to inhibition of respiratory syncytial virus entry” (priority 2015, dated 2020).
Positions of bridges follow the written chain, without caps; N, C: chain ends. Non-standard residues stand in square brackets, D forms with d. Residues, ends and D or L forms follow the SMILES beside them.

Biological target: T1, RSV-B/IZN45 (Human respiratory syncytial virus B, UniProt O36634)
T1 construct: N-trimer Mimics Synthesized; made in house; host or cells: chemical peptide synthesis
Test: biochemical
Format: binding
Details: synthesized peptide; RSV-B/IZN45; KD determined by SPR
Text: IZN45 N-trimer mimic comprises the IZ domain, a highly soluble, designed coiled-coil that helps solubilize the N-trimer, along with the C-terminal (bottom) 45 residues of the RSV N-trimer. IZN45 encompasses the full ordered portion of the N-trimer except for three N-terminal residues (removed to maintain a continuous heptad repeat with the IZ domain). The interactions between 35-residue RSV C-peptides, T108 and T118 (Lambert et al., 1996, Proc. Natl. Acad. Sci. USA 93:2186-2191), and IZN45 was examined by surface plasmon resonance (SPR). SPR is a gold standard assay to measure the kinetics and affinity of biological interactions. […] The Biotinylated L-form of RSV target IZN45 was captured onto one lane of a NeutrAvidin coated SPR chip. A mutant version of IZN45 containing four mutated residues along the N-trimer groove designed to disrupt binding (IZN45 Full Mut, negative control) was captured onto a separate lane of the NeutrAvidin chip. T118, corresponding to the C-terminal portion of the RSV F ectodomain, which is known to interact with the RSV N-trimer groove, was flowed over the various surfaces. […] The surfaces were regenerated with a detergent (0.1% SDS) after each injection of analyte. Various concentrations of T118 were measured in duplicate or triplicate injections. D-peptide interactions with IZN45 and IZN45-Full Mut surfaces were also measured using this method.
Peptides from the ‘winning’ phage clones from each library were synthesized as D-peptides. If solubility of the peptides was limited, N- or C-terminal charged residue(s) (e.g., lysine) were attached as necessary as previously described for HIV peptides in Eckert et al., 1999, Cell 99:103-15, incorporated by reference in its entirety. Binding affinity and kinetics of the D-peptide inhibitors to the IZN45 and IZN45 mutants was characterized by SPR (Biacore 3000), using methods as described in Welch et al., 2007, Proc. Natl. Acad. Sci. USA 104:16828-33, incorporated by reference in its entirety.

T1 sequence (O36634 163-207, added parts left off): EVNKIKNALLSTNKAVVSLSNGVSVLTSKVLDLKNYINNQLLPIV

First: CC[C@@H](C)[C@H]1NC(=O)[C@@H](CCCCN)NC(=O)[C@H](NC(=O)[C@@H](C)NC(=O)CNC(C)=O)CSSC[C@H](C(=O)N[C@H](C)C(=O)N[C@H](C)C(=O)NCC(=O)NCC(N)=O)NC(=O)[C@@H](CC(=O)O)NC(=O)[C@@H](Cc2c[nH]cn2)NC(=O)[C@@H](Cc2c[nH]c3ccccc23)NC(=O)[C@@H](Cc2c[nH]cn2)NC(=O)[C@@H](Cc2ccccc2)NC(=O)[C@@H](CC(C)C)NC(=O)[C@@H](CC(=O)O)NC(=O)[C@@H](Cc2c[nH]cn2)NC1=O [Ac-CX10C-119-GG] (Ac-G[dA][dC][dK][dI][dH][dD][dL][dF][dH][dW][dH][dD][dC][dA][dA]GG-NH2; disulfide 3-14)
Second: CC[C@@H](C)[C@H]1NC(=O)[C@@H](CCCCN)NC(=O)[C@H](NC(=O)[C@@H](C)NC(=O)CNC(C)=O)CSSC[C@H](C(=O)N[C@H](C)C(=O)N[C@H](C)C(N)=O)NC(=O)[C@@H](CC(=O)O)NC(=O)[C@@H](Cc2c[nH]cn2)NC(=O)[C@@H](Cc2c[nH]c3ccccc23)NC(=O)[C@@H](Cc2c[nH]cn2)NC(=O)[C@@H](Cc2ccccc2)NC(=O)[C@@H](CC(C)C)NC(=O)[C@@H](CC(=O)O)NC(=O)[C@@H](Cc2c[nH]cn2)NC1=O [Ac-CX10C-119] (Ac-G[dA][dC][dK][dI][dH][dD][dL][dF][dH][dW][dH][dD][dC][dA][dA]-NH2; disulfide 3-14)
The Kd of the first is 9.3-fold lower: 30 µM for the first, 280 µM for the second. The first binds more tightly here.

`CC[C@@H](C)[C@@H](NC(C)=O)C(=O)N[C@H](CO)C(=O)N[C@H](CC(C)C)C(=O)N1CCC[C@@H]1C(=O)N[C@@H](C(=O)N1CCC[C@@H]1C(=O)N[C@@H](C(=O)N[C@H](Cc1c[nH]c2ccccc12)C(=O)N[C@H](Cc1c[nH]c2ccccc12)C(=O)N1CCC[C@@H]1C(=O)N[C@H](CO)C(=O)N[C@@H](C(=O)NCC(=O)NCC(N)=O)[C@H](C)O)[C@H](C)O)[C@H](C)O` [Ac-X12-45-GG] (Ac-[dI][dS][dL][dP][dT][dP][dT][dW][dW][dP][dS][dT]GG-NH2) and `CC[C@@H](C)[C@@H](NC(C)=O)C(=O)N[C@H](CO)C(=O)N[C@H](CC(C)C)C(=O)N1CCC[C@@H]1C(=O)N[C@@H](C(=O)N1CCC[C@@H]1C(=O)N[C@@H](C(=O)N[C@H](Cc1c[nH]c2ccccc12)C(=O)N[C@H](Cc1c[nH]c2ccccc12)C(=O)N1CCC[C@@H]1C(=O)N[C@H](CO)C(=O)N[C@@H](C(=O)NCC(=O)N[C@H](CCCCN)C(N)=O)[C@H](C)O)[C@H](C)O)[C@H](C)O` [Ac-X12-45-GK] (Ac-[dI][dS][dL][dP][dT][dP][dT][dW][dW][dP][dS][dT]G[dK]-NH2) are within 1.5-fold of each other in Kd: 25 µM for the first, 23 µM for the second.

Compared with `CC[C@@H](C)[C@@H](NC(=O)[C@H](NC(=O)[C@@H](CCCCN)NC(=O)[C@@H](CO)NC(C)=O)C(C)C)C(=O)N[C@H](CC(C)C)C(=O)N1CCC[C@@H]1C(=O)N[C@H](CCC(=O)O)C(=O)N1CCC[C@@H]1C(=O)N[C@H](Cc1ccccc1)C(=O)N[C@H](Cc1c[nH]c2ccccc12)C(=O)N[C@H](Cc1c[nH]c2ccccc12)C(=O)N1CCC[C@@H]1C(=O)NCC(=O)NCC(N)=O` [Ac-X12-47-GG] (Ac-[dS][dK][dV][dI][dL][dP][dE][dP][dF][dW][dW][dP]GG-NH2), `CSCC[C@@H](NC(=O)[C@@H](Cc1c[nH]c2ccccc12)NC(=O)[C@@H](Cc1c[nH]c2ccccc12)NC(=O)[C@@H](Cc1ccc(O)cc1)NC(=O)[C@@H](CCCCN)NC(=O)[C@@H](CC(C)C)NC(=O)[C@@H](CO)NC(C)=O)C(=O)N[C@H](CCC(=O)O)C(=O)N[C@H](CCC(=O)O)C(=O)N[C@H](CC(C)C)C(=O)N1CCC[C@@H]1C(=O)N[C@H](CC(C)C)C(=O)N1CCC[C@@H]1C(=O)N[C@H](CCCCN)C(=O)N[C@H](Cc1c[nH]c2ccccc12)C(=O)N[C@H](Cc1c[nH]c2ccccc12)C(=O)NCC(=O)NCC(N)=O` [Ac-X16-18-GG] (Ac-[dS][dL][dK][dY][dW][dW][dM][dE][dE][dL][dP][dL][dP][dK][dW][dW]GG-NH2) is 2.8-fold lower in Kd: 15 µM for the first, 5.4 µM for the second.
